For test [1], the target named is LRRK2, WT (GST-tagged truncated LRRK2) (Homo sapiens, UniProt Q5S007). Kind of test: LRRK2 kinase assay (LanthaScreen), wild type. It is filed as biochemical. Particulars: LanthaScreen, LRRKtide substrate. A digest of the protocol:
(§1)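 GST-tagged truncated enzyme (2 μg/mL) phosphorylates 100 nM fluorescein-LRRKtide with 1 mM ATP in HEPES pH 7.5, 3 mM MgCl2, DTT, Brij35; 30 min, room temperature, compound dose response top 3 μM. Stopped with EDTA; phospho-ERM detected by terbium anti-phospho-ERM TR-FRET; identical conditions for both enzymes.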
(TR-FRET usually uses a lanthanide donor and a delayed reading to cut background.)

For another test, the target named is mutant G2019S LRRK2 (Homo sapiens (Human), UniProt Q5S007, G2019S). Kind of test: LRRK2 kinase assay (LanthaScreen), G2019S mutant. The class given is biochemical. Particulars: LanthaScreen, LRRKtide substrate. A digest of the protocol: as §1
Chain of mutant G2019S LRRK2 (Q5S007 whole entry G2019S): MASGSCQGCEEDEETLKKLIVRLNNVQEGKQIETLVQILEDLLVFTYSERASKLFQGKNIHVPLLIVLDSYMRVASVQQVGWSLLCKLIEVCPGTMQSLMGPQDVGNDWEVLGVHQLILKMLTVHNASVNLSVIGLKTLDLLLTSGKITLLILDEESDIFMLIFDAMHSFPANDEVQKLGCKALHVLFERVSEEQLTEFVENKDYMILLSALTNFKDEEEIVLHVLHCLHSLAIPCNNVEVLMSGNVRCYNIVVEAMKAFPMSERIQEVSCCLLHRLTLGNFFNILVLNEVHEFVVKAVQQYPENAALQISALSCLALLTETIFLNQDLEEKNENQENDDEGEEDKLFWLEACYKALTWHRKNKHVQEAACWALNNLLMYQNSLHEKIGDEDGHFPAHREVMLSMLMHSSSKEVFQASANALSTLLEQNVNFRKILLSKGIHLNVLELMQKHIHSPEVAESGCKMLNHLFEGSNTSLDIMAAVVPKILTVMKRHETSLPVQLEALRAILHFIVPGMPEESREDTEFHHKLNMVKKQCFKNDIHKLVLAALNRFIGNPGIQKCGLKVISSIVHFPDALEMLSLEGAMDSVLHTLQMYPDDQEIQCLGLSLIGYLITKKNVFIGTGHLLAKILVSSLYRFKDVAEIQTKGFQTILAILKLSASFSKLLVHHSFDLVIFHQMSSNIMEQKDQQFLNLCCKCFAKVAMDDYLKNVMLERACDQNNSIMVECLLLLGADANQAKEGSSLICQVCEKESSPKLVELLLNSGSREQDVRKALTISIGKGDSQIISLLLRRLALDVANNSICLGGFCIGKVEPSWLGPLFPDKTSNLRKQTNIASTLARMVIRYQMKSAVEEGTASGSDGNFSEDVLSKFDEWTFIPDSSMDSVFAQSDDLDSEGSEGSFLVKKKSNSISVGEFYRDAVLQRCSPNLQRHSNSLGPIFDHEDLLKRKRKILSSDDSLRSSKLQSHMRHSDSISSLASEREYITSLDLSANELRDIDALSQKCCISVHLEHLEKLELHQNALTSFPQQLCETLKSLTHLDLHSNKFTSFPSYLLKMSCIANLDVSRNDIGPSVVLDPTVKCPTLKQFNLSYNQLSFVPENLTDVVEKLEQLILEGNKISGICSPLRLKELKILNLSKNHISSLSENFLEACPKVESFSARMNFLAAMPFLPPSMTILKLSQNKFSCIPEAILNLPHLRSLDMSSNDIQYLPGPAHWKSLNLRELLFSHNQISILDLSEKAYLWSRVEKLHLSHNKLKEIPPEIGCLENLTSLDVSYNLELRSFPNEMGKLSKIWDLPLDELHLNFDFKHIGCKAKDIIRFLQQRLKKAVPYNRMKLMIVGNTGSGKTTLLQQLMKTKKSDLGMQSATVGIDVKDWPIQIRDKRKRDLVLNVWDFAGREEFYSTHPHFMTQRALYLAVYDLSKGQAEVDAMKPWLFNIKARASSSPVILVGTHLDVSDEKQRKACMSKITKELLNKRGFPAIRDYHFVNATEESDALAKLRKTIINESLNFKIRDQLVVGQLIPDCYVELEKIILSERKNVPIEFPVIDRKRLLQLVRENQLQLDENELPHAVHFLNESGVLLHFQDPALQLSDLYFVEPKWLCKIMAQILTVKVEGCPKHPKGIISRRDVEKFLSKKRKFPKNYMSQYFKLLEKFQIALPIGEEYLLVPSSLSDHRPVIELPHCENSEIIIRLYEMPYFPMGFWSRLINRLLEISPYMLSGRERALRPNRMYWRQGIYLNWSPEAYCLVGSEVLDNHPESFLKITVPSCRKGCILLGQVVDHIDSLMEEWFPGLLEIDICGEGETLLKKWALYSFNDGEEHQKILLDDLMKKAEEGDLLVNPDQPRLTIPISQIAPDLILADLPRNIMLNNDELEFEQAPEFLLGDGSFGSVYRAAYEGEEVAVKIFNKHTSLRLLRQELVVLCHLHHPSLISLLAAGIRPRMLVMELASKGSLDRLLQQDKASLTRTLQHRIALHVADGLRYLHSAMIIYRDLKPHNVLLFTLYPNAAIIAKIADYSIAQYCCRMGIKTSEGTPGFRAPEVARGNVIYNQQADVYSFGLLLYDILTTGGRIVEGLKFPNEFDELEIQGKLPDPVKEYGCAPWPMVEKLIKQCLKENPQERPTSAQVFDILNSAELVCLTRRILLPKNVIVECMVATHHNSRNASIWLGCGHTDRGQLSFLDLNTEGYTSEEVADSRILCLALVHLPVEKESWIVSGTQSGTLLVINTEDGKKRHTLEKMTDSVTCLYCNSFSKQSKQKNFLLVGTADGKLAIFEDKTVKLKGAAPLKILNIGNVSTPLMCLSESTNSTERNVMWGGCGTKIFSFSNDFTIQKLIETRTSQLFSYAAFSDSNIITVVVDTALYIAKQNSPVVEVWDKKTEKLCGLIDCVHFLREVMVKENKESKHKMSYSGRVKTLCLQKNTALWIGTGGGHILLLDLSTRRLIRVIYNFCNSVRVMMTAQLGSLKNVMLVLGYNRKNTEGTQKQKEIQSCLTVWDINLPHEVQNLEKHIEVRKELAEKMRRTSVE
[2] abbreviates: G2019S mutant LRRK2, read-out: LRRK2, G2019S IC50.

The structures appear in SMILES notation. Like-named read-outs stand apart in the source and are kept apart here.

Consider `Fc1ccc2ncc3nc(Cc4csnn4)n(C4CCC(F)C4)c3c2c1` (stereo not drawn) [Example 79, 8-fluoro-1-[cis-3-fluorocyclopentyl]-2-(1,2,3-thiadiazol-4-ylmethyl)-1H-imidazo[4,5-c]quinoline], for which the IC50 – broadly, the midpoint of a concentration-inhibition curve – in test [1] (wild type LRRK2) worked out at 9.73 nM; at mutant G2019S LRRK2 (setting [2]) it was 9.75 nM.

As to `C[C@@H]1C[C@H](n2c(CCC#N)nc3cnc4ccc(Cl)cc4c32)CCO1` [Example 80, 3-{8-chloro-1-[(2R,4R)-2-methyltetrahydro-2H-pyran-4-yl]-1H-imidazo[4,5-c]quinolin-2-yl}propanenitrile], the half-inhibitory concentration (IC50) amounted to 9.4 nM in test [1] (wild type LRRK2) and 11.3 nM at mutant G2019S LRRK2 (setting [2]).

For the compound `Cc1nnn(Cc2nc3cnc4ccc(C(F)(F)F)cc4c3n2[C@@H]2CCO[C@H](C)C2)n1` [Example 81, 1-[(2R,4R)-2-methyltetrahydro-2H-pyran-4-yl]-2-[(5-methyl-2H-tetrazol-2-yl)methyl]-8-(trifluoromethyl)-1H-imidazo[4,5-c]quinoline], the values for the IC50 (in test [1] (wild type LRRK2); at mutant G2019S LRRK2 (setting [2])) were 16.9 nM and 7.5 nM, respectively.

As to `Cc1cn(Cc2nc3cnc4ccc(Cl)cc4c3n2C2CN(C)CC2(F)F)nn1` (centres unmarked) [Example 82, 8-chloro-1-(4,4-difluoro-1-methylpyrrolidin-3-yl)-2-[(4-methyl-1H-1,2,3-triazol-1-yl)methyl]-1H-imidazo[4,5-c]quinoline], the IC50 in test [1] (wild type LRRK2) was 6.33 nM; at mutant G2019S LRRK2 (setting [2]), 4.64 nM.

With `CN1CC(n2c(Cn3cnnn3)nc3cnc4ccc(Cl)cc4c32)C(F)(F)C1` (centres unmarked) [Example 83, 8-chloro-1-(4,4-difluoro-1-methylpyrrolidin-3-yl)-2-(1H-tetrazol-1-ylmethyl)-1H-imidazo[4,5-c]quinoline], the IC50 in test [1] (wild type LRRK2) is 7.91 nM; at mutant G2019S LRRK2 (setting [2]), 11.6 nM.

Regarding `CN1CC(n2c(Cc3ncn(C)n3)nc3cnc4ccc(Cl)cc4c32)C(F)(F)C1` (centres unmarked) [Example 84, 8-chloro-1-(4,4-difluoro-1-methylpyrrolidin-3-yl)-2-[(1-methyl-1H-1,2,4-triazol-3-yl)methyl]-1H-imidazo[4,5-c]quinoline], the IC50 in test [1] (wild type LRRK2) came out at 10.2 nM; at mutant G2019S LRRK2 (setting [2]), 18.2 nM.

For the compound `CN1CC(n2c(Cn3cnnn3)nc3cnc4ccc(Cl)cc4c32)C(F)(F)C1` (centres unmarked) [Example 86, 8-chloro-1-(4,4-difluoro-1-methylpyrrolidin-3-yl)-2-(1H-tetrazol-1-ylmethyl)-1H-imidazo[4,5-c]quinoline], the IC50 in test [1] (wild type LRRK2) was 6.66 nM; at mutant G2019S LRRK2 (setting [2]), 4.4 nM.

On to `Cc1cnn(Cc2nc3cnc4ccc(Cl)cc4c3n2C2CN(C)CC2(F)F)n1` (centres unmarked) [Example 87, 8-chloro-1-(4,4-difluoro-1-methylpyrrolidin-3-yl)-2-[(4-methyl-2H-1,2,3-triazol-2-yl)methyl]-1H-imidazo[4,5-c]quinoline], for which the IC50 stood at 7.04 nM in test [1] (wild type LRRK2) and 4.51 nM on mutant G2019S LRRK2 (setting [2]).

For the compound `Cc1nc(Cc2nc3cnc4ccc(Cl)cc4c3n2C2CN(C)CC2(F)F)no1` (centres unmarked) [Example 88, 8-chloro-1-(4,4-difluoro-1-methylpyrrolidin-3-yl)-2-[(5-methyl-1,2,4-oxadiazol-3-yl)methyl]-1H-imidazo[4,5-c]quinoline], the IC50 turned out to be 9.25 nM in test [1] (wild type LRRK2) and 8.16 nM at mutant G2019S LRRK2 (setting [2]).

Turning to `Cc1nnc(Cc2nc3cnc4ccc(Cl)cc4c3n2C2CN(C)CC2(F)F)s1` (centres unmarked) [Example 89, 8-chloro-1-(4,4-difluoro-1-methylpyrrolidin-3-yl)-2-[(5-methyl-1,3,4-thiadiazol-2-yl)methyl]-1H-imidazo[4,5-c]quinoline], the IC50 worked out at 13.9 nM in test [1] (wild type LRRK2) and 8.03 nM on mutant G2019S LRRK2 (setting [2]).

As for `Cc1cn(Cc2nc3cnc4ccc(C(F)F)cc4c3n2[C@@H]2CCO[C@H](C)C2)nn1` [Example 90, 8-(difluoromethyl)-1-[(2R,4R)-2-methyltetrahydro-2H-pyran-4-yl]-2-[(4-methyl-1H-1,2,3-triazol-1-yl)methyl]-1H-imidazo[4,5-c]quinoline], the IC50 came out at 14.7 nM in test [1] (wild type LRRK2) and 7.32 nM on mutant G2019S LRRK2 (setting [2]).

As for `Cc1cc(Cc2nc3cnc4ccc(C(F)F)cc4c3n2[C@@H]2CCO[C@H](C)C2)no1` [Example 91, 8-(difluoromethyl)-2-[(5-methyl-1,2-oxazol-3-yl)methyl]-1-[(2R,4R)-2-methyltetrahydro-2H-pyran-4-yl]-1H-imidazo[4,5-c]quinoline], the IC50 in test [1] (wild type LRRK2) was found to be 18 nM; on mutant G2019S LRRK2 (setting [2]), 8.4 nM.

Take `Cc1nnc(Cc2nc3cnc4ccc(Cl)cc4c3n2C2CCOCC2(F)F)s1` (centres unmarked) [Example 92, 8-chloro-1-(3,3-difluorotetrahydro-2H-pyran-4-yl)-2-[(5-methyl-1,3,4-thiadiazol-2-yl)methyl]-1H-imidazo[4,5-c]quinoline]: the IC50 in test [1] (wild type LRRK2) is 10.9 nM; on mutant G2019S LRRK2 (setting [2]) it was 6.91 nM.

Turning to `FC1(F)COCCC1n1c(Cn2cncn2)nc2cnc3ccc(Cl)cc3c21` (centres unmarked) [Example 93, 8-chloro-1-(3,3-difluorotetrahydro-2H-pyran-4-yl)-2-(1H-1,2,4-triazol-1-ylmethyl)-1H-imidazo[4,5-c]quinoline], the IC50 in test [1] (1 mM ATP) was 11 nM; in test [1] (wild type LRRK2), 11.9 nM; on mutant G2019S LRRK2 (setting [2]) it was 8.7 nM.

With `FC1(F)COCCC1n1c(Cn2cc(C3CC3)nn2)nc2cnc3ccc(Cl)cc3c21` (centres unmarked) [Example 94, 8-chloro-2-[(4-cyclopropyl-1H-1,2,3-triazol-1-yl)methyl]-1-(3,3-difluorotetrahydro-2H-pyran-4-yl)-1H-imidazo[4,5-c]quinolone], the IC50 came out at 6.35 nM in test [1] (wild type LRRK2) and 6.48 nM at mutant G2019S LRRK2 (setting [2]).

Take `C[C@@H]1C[C@H](n2c(Cc3cnc(CO)cn3)nc3cnc4ccc(Cl)cc4c32)CCO1` [Example 95, [5-({8-chloro-1-[(2R,4R)-2-methyltetrahydro-2H-pyran-4-yl]-1H-imidazo[4,5-c]quinolin-2-yl}methyl)pyrazin-2-yl]methanol]: the figures for the IC50 (in test [1] (wild type LRRK2); on mutant G2019S LRRK2 (setting [2])) were 4.6 nM and 3.5 nM, respectively.

For `Cc1cn(Cc2nc3cnc4ccc(Cl)cc4c3n2C2CCOCC2(F)F)nn1` (stereo not drawn) [enantiomer of Example 46, 8-chloro-1-(3,3-difluorotetrahydro-2H-pyran-4-yl)-2-[(4-methyl-1H-1,2,3-triazol-1-yl)methyl]-1H-imidazo[4,5-c]quinoline], the IC50 in test [1] (1 mM ATP) turned out to be 21.4 nM; on mutant G2019S LRRK2 (1 mM ATP, read-out: LRRK2, G2019S mutant IC50) it was 16.1 nM.
